Measured values published in ChEMBL document CHEMBL5291721, “A preclinical secondary pharmacology resource illuminates target-adverse drug reaction associations of marketed drugs” (Nat Commun, 2023).

Tests used:
[1] = biological target: 5-hydroxytryptamine receptor 2B (Homo sapiens, UniProt P41595); assay type: functional, cell-based
[2] = biological target: Gamma-aminobutyric acid receptor subunit alpha-1 (Rattus norvegicus, UniProt P62813)
[3] = biological target: Histamine H3 receptor (Homo sapiens, UniProt Q9Y5N1)
[4] = biological target: T1, 5-hydroxytryptamine receptor 3A (Homo sapiens, UniProt P46098); assay type: functional
T1 sequence (P46098 whole entry): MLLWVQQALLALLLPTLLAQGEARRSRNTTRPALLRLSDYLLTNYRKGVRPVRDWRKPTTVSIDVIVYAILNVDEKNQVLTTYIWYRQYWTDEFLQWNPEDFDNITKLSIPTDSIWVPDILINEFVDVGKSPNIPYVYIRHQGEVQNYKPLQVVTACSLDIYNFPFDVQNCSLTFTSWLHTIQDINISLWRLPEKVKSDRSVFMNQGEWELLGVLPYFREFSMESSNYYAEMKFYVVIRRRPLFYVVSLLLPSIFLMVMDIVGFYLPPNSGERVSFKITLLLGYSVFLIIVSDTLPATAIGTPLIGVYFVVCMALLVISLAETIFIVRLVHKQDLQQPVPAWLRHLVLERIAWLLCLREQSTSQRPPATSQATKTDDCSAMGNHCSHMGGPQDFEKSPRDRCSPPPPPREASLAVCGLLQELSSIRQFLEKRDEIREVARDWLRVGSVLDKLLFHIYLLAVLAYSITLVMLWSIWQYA

[5] = biological target: Glutamate receptor ionotropic, NMDA 1 (Rattus norvegicus, UniProt P35439)
[6] = biological target: T2, Neuropeptide Y receptor type 1 (Homo sapiens, UniProt P25929)
T2 sequence (P25929 whole entry): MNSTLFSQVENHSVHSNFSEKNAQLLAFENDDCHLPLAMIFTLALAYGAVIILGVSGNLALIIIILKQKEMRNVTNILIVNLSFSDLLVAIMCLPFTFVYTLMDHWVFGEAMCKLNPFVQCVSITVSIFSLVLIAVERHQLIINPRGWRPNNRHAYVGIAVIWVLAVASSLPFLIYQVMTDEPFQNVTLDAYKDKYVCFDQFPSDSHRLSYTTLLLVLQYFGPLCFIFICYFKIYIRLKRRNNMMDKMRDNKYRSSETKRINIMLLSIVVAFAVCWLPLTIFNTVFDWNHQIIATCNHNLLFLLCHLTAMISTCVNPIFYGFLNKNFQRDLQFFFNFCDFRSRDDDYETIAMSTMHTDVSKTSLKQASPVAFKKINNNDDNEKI

[7] = biological target: Histamine H2 receptor (Homo sapiens, UniProt P25021); assay type: functional, cell-based
[8] = biological target: Melanocortin receptor 3 (Homo sapiens, UniProt P41968)
[9] = biological target: T3, Muscarinic acetylcholine receptor M1 (Homo sapiens, UniProt P11229); assay type: functional
T3 sequence (P11229 whole entry): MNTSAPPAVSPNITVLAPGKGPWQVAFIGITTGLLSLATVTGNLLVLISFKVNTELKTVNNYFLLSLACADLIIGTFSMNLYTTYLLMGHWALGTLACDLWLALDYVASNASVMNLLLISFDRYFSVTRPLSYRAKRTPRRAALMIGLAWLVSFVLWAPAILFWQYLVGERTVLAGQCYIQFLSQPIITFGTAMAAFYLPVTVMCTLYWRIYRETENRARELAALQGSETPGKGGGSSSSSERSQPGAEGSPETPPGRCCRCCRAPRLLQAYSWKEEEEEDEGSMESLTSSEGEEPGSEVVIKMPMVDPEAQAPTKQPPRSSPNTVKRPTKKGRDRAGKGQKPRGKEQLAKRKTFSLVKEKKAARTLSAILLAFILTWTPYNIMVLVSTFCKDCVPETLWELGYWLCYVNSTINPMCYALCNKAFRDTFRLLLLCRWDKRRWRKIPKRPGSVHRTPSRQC

[10] = biological target: Beta-1 adrenergic receptor (Homo sapiens, UniProt P08588); assay type: functional
[11] = biological target: T4, Prostaglandin G/H synthase 1 (Rattus norvegicus, UniProt Q63921); assay type: functional
T4 sequence (Q63921 whole entry): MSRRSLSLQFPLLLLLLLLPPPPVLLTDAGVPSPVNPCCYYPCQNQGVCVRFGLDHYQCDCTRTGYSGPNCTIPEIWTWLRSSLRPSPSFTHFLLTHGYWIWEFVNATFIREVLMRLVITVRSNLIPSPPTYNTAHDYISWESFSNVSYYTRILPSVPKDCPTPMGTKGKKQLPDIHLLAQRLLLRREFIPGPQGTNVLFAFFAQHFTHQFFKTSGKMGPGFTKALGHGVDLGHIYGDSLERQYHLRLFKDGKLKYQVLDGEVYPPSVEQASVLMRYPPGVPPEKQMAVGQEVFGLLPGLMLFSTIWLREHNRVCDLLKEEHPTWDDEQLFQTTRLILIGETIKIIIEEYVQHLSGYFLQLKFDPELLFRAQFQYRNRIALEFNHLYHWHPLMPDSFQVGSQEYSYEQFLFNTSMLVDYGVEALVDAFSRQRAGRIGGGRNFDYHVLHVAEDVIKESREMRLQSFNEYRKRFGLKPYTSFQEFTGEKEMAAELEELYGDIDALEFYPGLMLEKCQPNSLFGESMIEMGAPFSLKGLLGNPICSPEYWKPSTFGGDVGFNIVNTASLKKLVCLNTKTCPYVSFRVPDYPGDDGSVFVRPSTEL

[12] = biological target: T5, Muscarinic acetylcholine receptor M2 (Homo sapiens, UniProt P08172); assay type: functional, cell-based
T5 sequence (P08172 whole entry): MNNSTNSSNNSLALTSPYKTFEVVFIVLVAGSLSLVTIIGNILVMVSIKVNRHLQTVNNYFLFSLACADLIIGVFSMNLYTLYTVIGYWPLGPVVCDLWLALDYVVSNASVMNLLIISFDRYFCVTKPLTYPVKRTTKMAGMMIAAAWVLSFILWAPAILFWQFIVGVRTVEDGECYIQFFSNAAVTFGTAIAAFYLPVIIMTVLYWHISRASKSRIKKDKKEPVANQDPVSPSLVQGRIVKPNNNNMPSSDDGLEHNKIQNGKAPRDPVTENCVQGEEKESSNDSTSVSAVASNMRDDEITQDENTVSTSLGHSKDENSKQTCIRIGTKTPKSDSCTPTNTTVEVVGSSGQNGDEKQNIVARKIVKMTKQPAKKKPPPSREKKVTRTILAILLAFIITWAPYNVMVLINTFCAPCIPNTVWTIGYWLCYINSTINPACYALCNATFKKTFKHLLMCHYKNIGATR

[13] = biological target: 5-hydroxytryptamine receptor 2A (Homo sapiens, UniProt P28223); assay type: functional, cell-based
[14] = biological target: Cannabinoid receptor 1 (Homo sapiens, UniProt P21554); assay type: functional, cell-based
Further: assay procedure not described here.

5-hydroxytryptamine receptor 2A, sequence (P28223 whole entry): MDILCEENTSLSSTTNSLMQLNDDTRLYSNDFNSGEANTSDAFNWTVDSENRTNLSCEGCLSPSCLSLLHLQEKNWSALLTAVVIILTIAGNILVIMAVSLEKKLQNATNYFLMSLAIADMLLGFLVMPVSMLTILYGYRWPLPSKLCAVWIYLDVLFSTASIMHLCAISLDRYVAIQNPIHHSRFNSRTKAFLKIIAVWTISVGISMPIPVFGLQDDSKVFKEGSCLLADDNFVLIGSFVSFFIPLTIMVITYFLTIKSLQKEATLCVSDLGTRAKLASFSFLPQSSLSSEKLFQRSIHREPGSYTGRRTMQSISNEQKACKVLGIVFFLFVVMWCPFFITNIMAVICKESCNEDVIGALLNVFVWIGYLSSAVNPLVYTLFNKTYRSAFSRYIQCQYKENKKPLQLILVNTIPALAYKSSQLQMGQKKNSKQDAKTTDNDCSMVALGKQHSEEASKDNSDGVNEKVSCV
Histamine H3 receptor, sequence (Q9Y5N1 whole entry): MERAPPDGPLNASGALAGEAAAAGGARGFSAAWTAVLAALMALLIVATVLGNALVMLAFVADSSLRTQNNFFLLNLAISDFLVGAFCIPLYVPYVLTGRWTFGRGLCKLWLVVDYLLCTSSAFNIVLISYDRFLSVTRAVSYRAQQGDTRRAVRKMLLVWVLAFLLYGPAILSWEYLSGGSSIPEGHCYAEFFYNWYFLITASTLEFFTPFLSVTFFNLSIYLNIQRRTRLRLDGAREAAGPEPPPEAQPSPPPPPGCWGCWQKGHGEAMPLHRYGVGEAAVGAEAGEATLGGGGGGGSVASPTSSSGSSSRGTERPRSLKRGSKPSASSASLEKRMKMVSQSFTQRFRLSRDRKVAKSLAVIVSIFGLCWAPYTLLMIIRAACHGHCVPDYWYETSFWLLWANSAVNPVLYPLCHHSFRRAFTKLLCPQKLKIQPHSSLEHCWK
Cannabinoid receptor 1, sequence (P21554 whole entry): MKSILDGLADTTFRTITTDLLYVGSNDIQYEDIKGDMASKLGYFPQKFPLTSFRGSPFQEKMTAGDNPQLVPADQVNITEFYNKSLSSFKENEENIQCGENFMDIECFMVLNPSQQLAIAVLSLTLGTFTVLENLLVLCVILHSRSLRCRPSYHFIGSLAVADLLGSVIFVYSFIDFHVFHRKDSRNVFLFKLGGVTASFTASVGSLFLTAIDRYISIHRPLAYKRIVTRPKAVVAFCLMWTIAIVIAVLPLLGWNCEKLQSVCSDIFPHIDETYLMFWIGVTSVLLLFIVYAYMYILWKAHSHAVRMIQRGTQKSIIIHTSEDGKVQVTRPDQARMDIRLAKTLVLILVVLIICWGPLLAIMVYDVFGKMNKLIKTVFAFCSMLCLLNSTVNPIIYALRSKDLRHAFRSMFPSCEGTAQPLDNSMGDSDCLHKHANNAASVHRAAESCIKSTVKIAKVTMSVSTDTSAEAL
5-hydroxytryptamine receptor 2B, sequence (P41595 whole entry): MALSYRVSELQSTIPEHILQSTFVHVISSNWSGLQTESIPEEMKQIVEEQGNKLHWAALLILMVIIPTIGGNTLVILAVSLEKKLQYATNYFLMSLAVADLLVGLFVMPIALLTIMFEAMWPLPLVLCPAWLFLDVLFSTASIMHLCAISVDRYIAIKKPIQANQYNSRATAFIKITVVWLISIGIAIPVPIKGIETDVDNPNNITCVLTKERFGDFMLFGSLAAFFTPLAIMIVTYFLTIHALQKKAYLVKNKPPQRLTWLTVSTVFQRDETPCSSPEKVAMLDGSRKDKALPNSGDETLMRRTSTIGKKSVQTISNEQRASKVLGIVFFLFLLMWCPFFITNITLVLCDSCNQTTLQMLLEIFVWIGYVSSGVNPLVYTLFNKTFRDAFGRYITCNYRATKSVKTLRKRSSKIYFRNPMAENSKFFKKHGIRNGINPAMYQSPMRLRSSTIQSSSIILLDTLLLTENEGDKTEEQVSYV
Melanocortin receptor 3, sequence (P41968 whole entry): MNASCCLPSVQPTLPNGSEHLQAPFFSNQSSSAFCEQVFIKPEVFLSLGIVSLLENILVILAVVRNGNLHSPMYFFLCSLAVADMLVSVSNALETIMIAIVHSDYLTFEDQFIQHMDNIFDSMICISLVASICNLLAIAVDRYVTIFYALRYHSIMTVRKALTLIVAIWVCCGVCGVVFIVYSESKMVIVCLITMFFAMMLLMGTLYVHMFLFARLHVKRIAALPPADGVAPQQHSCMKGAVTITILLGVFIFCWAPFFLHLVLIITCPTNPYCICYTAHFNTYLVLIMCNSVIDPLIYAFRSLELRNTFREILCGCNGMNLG
Beta-1 adrenergic receptor, sequence (P08588 whole entry): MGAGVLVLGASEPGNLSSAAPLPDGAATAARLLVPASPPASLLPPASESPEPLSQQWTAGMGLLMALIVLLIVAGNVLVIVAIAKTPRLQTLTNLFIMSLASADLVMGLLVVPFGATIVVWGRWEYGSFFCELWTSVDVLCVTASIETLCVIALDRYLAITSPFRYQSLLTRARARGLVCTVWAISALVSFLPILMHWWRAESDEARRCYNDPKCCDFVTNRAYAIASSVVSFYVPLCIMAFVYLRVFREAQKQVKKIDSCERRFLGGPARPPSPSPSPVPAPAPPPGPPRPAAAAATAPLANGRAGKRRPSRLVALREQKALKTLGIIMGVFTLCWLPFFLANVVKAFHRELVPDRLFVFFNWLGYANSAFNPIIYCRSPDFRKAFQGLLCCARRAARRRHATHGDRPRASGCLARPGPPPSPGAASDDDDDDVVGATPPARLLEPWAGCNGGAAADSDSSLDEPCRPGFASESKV
Gamma-aminobutyric acid receptor subunit alpha-1, sequence (P62813 whole entry): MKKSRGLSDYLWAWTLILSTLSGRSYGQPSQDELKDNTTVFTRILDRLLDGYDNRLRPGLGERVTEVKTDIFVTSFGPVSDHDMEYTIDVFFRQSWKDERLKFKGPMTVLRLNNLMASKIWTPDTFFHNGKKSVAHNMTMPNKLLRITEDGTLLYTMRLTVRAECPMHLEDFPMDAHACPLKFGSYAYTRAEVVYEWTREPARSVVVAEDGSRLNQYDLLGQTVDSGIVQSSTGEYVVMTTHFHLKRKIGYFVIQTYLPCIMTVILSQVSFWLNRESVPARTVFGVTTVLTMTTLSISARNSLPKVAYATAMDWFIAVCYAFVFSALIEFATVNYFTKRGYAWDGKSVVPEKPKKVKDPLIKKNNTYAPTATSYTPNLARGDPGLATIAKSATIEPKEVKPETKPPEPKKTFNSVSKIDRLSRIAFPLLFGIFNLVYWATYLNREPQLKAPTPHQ
Histamine H2 receptor, sequence (P25021 whole entry): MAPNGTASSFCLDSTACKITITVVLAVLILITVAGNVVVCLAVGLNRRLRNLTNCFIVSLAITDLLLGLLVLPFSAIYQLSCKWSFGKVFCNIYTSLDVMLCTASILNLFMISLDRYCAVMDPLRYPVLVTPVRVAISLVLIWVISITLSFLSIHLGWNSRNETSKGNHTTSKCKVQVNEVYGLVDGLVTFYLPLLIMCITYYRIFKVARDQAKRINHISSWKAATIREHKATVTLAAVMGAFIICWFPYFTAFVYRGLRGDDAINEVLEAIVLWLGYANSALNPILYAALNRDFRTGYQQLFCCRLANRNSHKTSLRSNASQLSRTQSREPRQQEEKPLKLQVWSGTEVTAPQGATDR

AC50 [1]	AC50 [2]	AC50 [3]	AC50 [4]	AC50 [5]	AC50 [6]	AC50 [7]	AC50 [8]	AC50 [9]	AC50 [10]	AC50 [11]	AC50 [12]	AC50 [13]	AC50 [14]	Structure (SMILES)
> 10 µM	> 10 µM	> 10 µM	> 30 µM	> 10 µM	> 10 µM	> 10 µM	> 10 µM	> 10 µM	> 10 µM	> 10 µM	> 10 µM	> 10 µM	> 30 µM	CN(C)CCC(O)(c1ccccc1)c1ccccc1Cl (stereo unspecified) [CHLOPHEDIANOL]
> 30 µM	> 30 µM	> 30 µM	> 30 µM	> 30 µM	> 30 µM	> 30 µM	> 30 µM	> 30 µM	> 30 µM	> 30 µM	> 30 µM	> 30 µM	> 30 µM	C[C@]12C=CC(=O)C=C1C(Cl)=C[C@@H]1[C@@H]2[C@@H](O)C[C@@]2(C)[C@H]1CC[C@]2(O)C(=O)CO [CLOPREDNOL]
> 10 µM	> 10 µM	> 10 µM	> 30 µM	> 10 µM	> 10 µM	> 10 µM	> 10 µM	> 10 µM	> 10 µM	0.653 µM	> 10 µM	> 30 µM	> 30 µM	CN(C)[C@@H]1C(O)=C(C(=O)NCN2CCCC2)C(=O)[C@@]2(O)C(O)=C3C(=O)c4c(O)cccc4[C@@](C)(O)[C@H]3C[C@@H]12 [ROLITETRACYCLINE]
> 30 µM	> 30 µM	> 30 µM	> 30 µM	> 30 µM	> 30 µM	> 30 µM	> 30 µM	> 30 µM	> 30 µM	> 30 µM	> 30 µM	> 30 µM	> 30 µM	C[C@]12CCC(=O)C=C1C=C[C@@H]1[C@@H]2CC[C@@]2(C)[C@H]1CC[C@@]21CCC(=O)O1 [CANRENONE]
